According to US10538555B2, “Macrocyclic inhibitors of the PD-1/PD-L1 and CD80(B7-1)/PD-L1 protein/protein interactions” (BRISTOL-MYERS SQUIBB COMPANY, priority 2014, dated 2020):
*1 amine or outer side, *2 acyl side, *3 side chain or, on linkers, in order; H or OH if unused. Where a SMILES comes first, the peptide text is derived from it. Bridges are numbered along the chain shown (N, C = ends). [ ]: non-standard residue; d: D form. ξ: configuration not given here. Trp(1-CH2COOH) = N[C@@H](Cc1cn(CC(=O)O)c2ccccc12)C(=O)O; Phe(3,4,5-F3) = N[C@@H](Cc1cc(F)c(F)c(F)c1)C(=O)O; NMePhe(4-F) = CN[C@@H](Cc1ccc(F)cc1)C(=O)O; Phe(4-F) = N[C@@H](Cc1ccc(F)cc1)C(=O)O; d(cisHyp) = O=C(O)[C@H]1C[C@@H](O)CN1; Bta = N[C@@H](Cc1csc2ccccc12)C(=O)O; Hyp = O=C(O)[C@@H]1C[C@@H](O)CN1; NMeF = CN[C@@H](Cc1ccccc1)C(=O)O; X1 = O=C([C@H]1COCCN1[*:1])[*:2]; dPip(4-aza) = O=C(O)[C@H]1CNCCN1; dHyp = O=C(O)[C@H]1C[C@H](O)CN1; NMehSer = CN[C@@H](CCO)C(=O)O; NMeNle = CCCC[C@H](NC)C(=O)O; Pip = O=C(O)[C@@H]1CCCCN1; dPip = O=C(O)[C@H]1CCCCN1; hSer = N[C@@H](CCO)C(=O)O; NMeA = CN[C@@H](C)C(=O)O; Orn = NCCC[C@H](N)C(=O)O; dThz = O=C(O)[C@H]1CSCN1; Dab = NCC[C@H](N)C(=O)O; Dap = NC[C@H](N)C(=O)O; ξC = NC(CS)C(=O)O; Sar = CNCC(=O)O

Target: T1, Human PD-L1/PD-1 (Homo sapiens, UniProt Q9NZQ7)
T1 construct: TVMV protease cleavage site (C); made in house; host or cells: HEK293T cells
Test: HTRF Human PD-L1/PD-1 binding assay (PD-1-Ig/PD-L1-His)
Settings: PD-L1-His 10 nM, PD-1-Ig 20 nM; class symbol; read-out: HTRF Human PD-L1/PD-1 Binding Assay IC50 Range
How it was run: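 Soluble HEK293T-expressed proteins: hPD-L1-His 10 nM, hPD-1-Ig 20 nM final. Cpd + PD-L1 15 min, + PD-1 15 min, + Eu anti-Ig 1 nM/APC anti-His 20 nM 30 min. Buffer dPBS, 0.1% BSA, 0.05% Tween-20. TR-FRET 665/620.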

T1 sequence (Q9NZQ7 with tags, fused parts or gaps): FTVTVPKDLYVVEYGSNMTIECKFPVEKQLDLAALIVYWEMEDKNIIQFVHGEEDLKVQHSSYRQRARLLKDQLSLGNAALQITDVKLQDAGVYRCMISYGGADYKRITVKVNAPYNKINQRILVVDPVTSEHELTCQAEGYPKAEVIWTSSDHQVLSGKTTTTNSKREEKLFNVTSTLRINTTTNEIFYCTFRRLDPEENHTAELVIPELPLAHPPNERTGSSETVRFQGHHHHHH

IC50 [nM] | SMILES
1 to 9.9 | CCCC[C@H]1C(=O)N2C[C@H](O)C[C@@H]2C(=O)N[C@@H](CC(=O)O)C(=O)N[C@@H](C(C)C)C(=O)N(C)[C@@H](Cc2ccccc2)C(=O)N[C@@H](CCC(=O)O)C(=O)N2CSC[C@@H]2C(=O)N[C@@H](Cc2c[nH]c3ccccc23)C(=O)N[C@@H](Cc2ccc(O)cc2)C(=O)N[C@@H](CCO)C(=O)N[C@H](C(=O)NCC(N)=O)CSCC(=O)N[C@@H](Cc2cc(F)c(F)c(F)c2)C(=O)N(C)[C@@H](Cc2ccccc2)C(=O)N1C [Example 10150] ({CH2CO}-[Phe(3,4,5-F3)][NMeF][NMeNle][d(cisHyp)]DV[NMeF]E[dThz]WY[hSer]CG-NH2; thioether N-13)
1000 to 10000 | CCCC[C@H]1C(=O)N[C@@H](CC(N)=O)C(=O)N2CCC[C@H]2C(=O)N[C@@H](CO)C(=O)N[C@@H](CCO)C(=O)N2CCC[C@H]2C(=O)N[C@@H](Cc2c[nH]c3ccccc23)C(=O)N[C@@H](CN)C(=O)N[C@@H](Cc2c[nH]c3ccccc23)C(=O)N(C)[C@@H](C)C(=O)N(C)[C@@H](C)C(=O)N[C@@H](CCCNC(=N)N)C(=O)NC(C(=O)NCC(N)=O)CSCC(=O)N[C@@H](Cc2ccc(O)cc2)C(=O)N1C (stereo partly drawn) [Example 10202] ({CH2CO}-Y[NMeNle]NPS[hSer]PW[Dap]W[NMeA][NMeA]R[ξC]G-NH2; thioether N-14)
1 to 9.9 | CCCC[C@H]1C(=O)N2C[C@H](O)C[C@@H]2C(=O)N[C@@H](CC(=O)O)C(=O)N[C@@H](C(C)C)C(=O)N(C)[C@@H](Cc2ccccc2)C(=O)N[C@@H](CCC(=O)O)C(=O)N2CCNC[C@@H]2C(=O)N[C@@H](Cc2c[nH]c3ccccc23)C(=O)N[C@@H](Cc2ccc(O)cc2)C(=O)N[C@@H](CCO)C(=O)N[C@H](C(=O)NCC(N)=O)CSCC(=O)N[C@@H](Cc2cc(F)c(F)c(F)c2)C(=O)N(C)[C@@H](Cc2ccccc2)C(=O)N1C [Example 10165] ({CH2CO}-[Phe(3,4,5-F3)][NMeF][NMeNle][d(cisHyp)]DV[NMeF]E[dPip(4-aza)]WY[hSer]CG-NH2; thioether N-13)
1 to 9.9 | CCCC[C@H]1C(=O)N2CCC[C@@H]2C(=O)N[C@@H](CCC(=O)O)C(=O)N[C@@H](C(C)C)C(=O)N(C)[C@@H](Cc2ccccc2)C(=O)N[C@@H](CCC(=O)O)C(=O)N2CCCC[C@@H]2C(=O)N[C@@H](Cc2c[nH]c3ccccc23)C(=O)N[C@@H](Cc2ccc(O)cc2)C(=O)N[C@@H](CC(C)C)C(=O)N[C@H](C(=O)NCC(N)=O)CSCC(=O)N[C@@H](Cc2cc(F)c(F)c(F)c2)C(=O)N(C)[C@@H](Cc2ccc(F)cc2)C(=O)N1C [Example 10576] ({CH2CO}-[Phe(3,4,5-F3)][NMePhe(4-F)][NMeNle][dP]EV[NMeF]E[dPip]WYLCG-NH2; thioether N-13)
100 to 990 | CCCC[C@H]1C(=O)N2CCC[C@@H]2C(=O)N[C@@H](CC(=O)O)C(=O)N[C@@H](C(C)C)C(=O)N(C)[C@@H](Cc2ccccc2)C(=O)N[C@@H](CCN)C(=O)N2CCCC[C@@H]2C(=O)N[C@H](CCC(=O)O)C(=O)N[C@@H](Cc2ccc(O)cc2)C(=O)N[C@@H](CCCN)C(=O)N[C@H](C(=O)NCC(N)=O)CSCC(=O)N[C@@H](Cc2cc(F)c(F)c(F)c2)C(=O)N(C)[C@@H](Cc2ccc(F)cc2)C(=O)N1C [Example 10609] ({CH2CO}-[Phe(3,4,5-F3)][NMePhe(4-F)][NMeNle][dP]DV[NMeF][Dab][dPip][dE]Y[Orn]CG-NH2; thioether N-13)
1 to 9.9 | CCCC[C@H]1C(=O)N2C[C@H](O)C[C@@H]2C(=O)N[C@@H](CC(=O)O)C(=O)N[C@@H](C(C)C)C(=O)N(C)[C@@H](Cc2ccccc2)C(=O)N[C@@H](CCC(=O)O)C(=O)N2CCOC[C@@H]2C(=O)N[C@@H](Cc2c[nH]c3ccccc23)C(=O)N[C@@H](Cc2ccc(O)cc2)C(=O)N[C@@H](CC(N)=O)C(=O)N[C@H](C(=O)NCC(N)=O)CSCC(=O)N[C@@H](Cc2cc(F)c(F)c(F)c2)C(=O)N(C)[C@@H](Cc2ccc(F)cc2)C(=O)N1C [Example 10591] ({CH2CO}-[Phe(3,4,5-F3)][NMePhe(4-F)][NMeNle][d(cisHyp)]DV[NMeF]E[X1]WYNCG-NH2; thioether N-13)

More lines, now with the values behind:

SMILES | IC50 [nM]
CCCC[C@H]1C(=O)N(C)[C@@H](CCCC)C(=O)N[C@@H](C)C(=O)N[C@H](C(=O)NCC(N)=O)CSCC(=O)N[C@@H](Cc2ccc(O)cc2)C(=O)N2CCCC[C@H]2C(=O)N[C@@H](CC(=O)O)C(=O)N2CCC[C@H]2C(=O)N[C@@H](Cc2cnc[nH]2)C(=O)N[C@@H](CCC(N)=O)C(=O)N2C[C@H](O)C[C@H]2C(=O)N[C@@H](Cc2c[nH]c3ccccc23)C(=O)N[C@@H](CO)C(=O)N[C@@H](Cc2cn(CC(=O)O)c3ccccc23)C(=O)N1C [Example 1292] ({CH2CO}-Y[Pip]DPHQ[Hyp]WS[Trp(1-CH2COOH)][NMeNle][NMeNle]ACG-NH2; thioether N-14) | 10 to 99.9
CCCC[C@H]1C(=O)N2C[C@H](O)C[C@@H]2C(=O)N[C@@H](CC(=O)O)C(=O)N[C@@H](C(C)C)C(=O)N(C)[C@@H](Cc2ccccc2)C(=O)N[C@@H](CC(=O)O)C(=O)N2C[C@H](O)C[C@@H]2C(=O)N[C@@H](Cc2c[nH]c3ccccc23)C(=O)N[C@@H](Cc2ccc(O)cc2)C(=O)N[C@@H](CN)C(=O)N[C@H](C(=O)NCC(N)=O)CSCC(=O)N[C@@H](Cc2cc(F)c(F)c(F)c2)C(=O)N(C)[C@@H](Cc2ccccc2)C(=O)N1C [Example 9348] ({CH2CO}-[Phe(3,4,5-F3)][NMeF][NMeNle][d(cisHyp)]DV[NMeF]D[d(cisHyp)]WY[Dap]CG-NH2; thioether N-13) | 10 to 99.9
CCCC[C@H]1C(=O)N2C[C@H](O)C[C@@H]2C(=O)N[C@@H](CC(=O)O)C(=O)N[C@@H](C(C)C)C(=O)N(C)[C@@H](Cc2ccccc2)C(=O)N[C@@H](Cc2ccc(O)cc2)C(=O)N2C[C@@H](O)C[C@@H]2C(=O)N[C@@H](Cc2c[nH]c3ccccc23)C(=O)N[C@@H](Cc2ccc(O)cc2)C(=O)N[C@@H](CCCN)C(=O)N[C@H](C(=O)NCC(N)=O)CSCC(=O)N[C@@H](Cc2cc(F)c(F)c(F)c2)C(=O)N(C)[C@@H](Cc2ccccc2)C(=O)N1C [Example 9372] ({CH2CO}-[Phe(3,4,5-F3)][NMeF][NMeNle][d(cisHyp)]DV[NMeF]Y[dHyp]WY[Orn]CG-NH2; thioether N-13) | 1 to 9.9
CCCC[C@H]1C(=O)N(C)[C@@H](CCCC)C(=O)N[C@@H](CCC(=O)O)C(=O)NC(C(=O)NCC(N)=O)CSCC(=O)N[C@@H](Cc2ccc(O)cc2)C(=O)N(C)[C@@H](C)C(=O)N[C@@H](CC(N)=O)C(=O)N2CCC[C@H]2C(=O)N[C@@H](CC(N)=O)C(=O)N[C@@H](CC(C)C)C(=O)N2C[C@H](O)C[C@H]2C(=O)N[C@@H](Cc2c[nH]c3ccccc23)C(=O)N[C@@H](CN)C(=O)N[C@@H](Cc2c[nH]c3ccccc23)C(=O)N1C (stereo partly drawn) [Example 9177] ({CH2CO}-Y[NMeA]NPNL[Hyp]W[Dap]W[NMeNle][NMeNle]E[ξC]G-NH2; thioether N-14) | 100 to 990
CCCC[C@H]1C(=O)N2CCC[C@@H]2C(=O)N[C@@H](CO)C(=O)N[C@@H](C(C)C)C(=O)N(C)[C@@H](Cc2ccccc2)C(=O)N[C@@H](Cc2ccc(O)cc2)C(=O)N2CCC[C@@H]2C(=O)N[C@@H](Cc2c[nH]c3ccccc23)C(=O)N[C@@H](Cc2ccc(O)cc2)C(=O)N[C@@H](CC(C)C)C(=O)N[C@H](C(=O)NCC(N)=O)CSCC(=O)N[C@@H](Cc2cc(F)c(F)c(F)c2)C(=O)N(C)[C@@H](Cc2ccccc2)C(=O)N1C [Example 10066] ({CH2CO}-[Phe(3,4,5-F3)][NMeF][NMeNle][dP]SV[NMeF]Y[dP]WYLCG-NH2; thioether N-13) | 1 to 9.9
CCCC[C@H]1C(=O)N(C)CC(=O)N[C@@H](CC(=O)O)C(=O)N[C@@H](C(C)C)C(=O)N(C)[C@@H](Cc2ccccc2)C(=O)N[C@@H](Cc2ccc(O)cc2)C(=O)N(C)CC(=O)N[C@@H](Cc2c[nH]c3ccccc23)C(=O)N[C@@H](Cc2ccc(O)cc2)C(=O)N[C@@H](CC(C)C)C(=O)N[C@H](C(=O)NCC(N)=O)CSCC(=O)N[C@@H](Cc2csc3ccccc23)C(=O)N(C)[C@@H](Cc2ccccc2)C(=O)N1C [Example 3245] ({CH2CO}-[Bta][NMeF][NMeNle][Sar]DV[NMeF]Y[Sar]WYLCG-NH2; thioether N-13) | 1000 to 10000
CCCC[C@H]1C(=O)N(C)[C@@H](CCCC)C(=O)N[C@@H](CO)C(=O)N[C@H](C(=O)NCC(N)=O)CSCC(=O)N[C@@H](Cc2ccc(O)cc2)C(=O)N(C)[C@@H](C)C(=O)N[C@@H](CC(=O)O)C(=O)N2CCC[C@H]2C(=O)N[C@@H](CO)C(=O)N[C@@H](CC(C)C)C(=O)N2C[C@H](O)C[C@H]2C(=O)N[C@@H](Cc2c[nH]c3ccccc23)C(=O)N[C@@H](CO)C(=O)N[C@@H](Cc2cn(CC(=O)O)c3ccccc23)C(=O)N1C [Example 6274] ({CH2CO}-Y[NMeA]DPSL[Hyp]WS[Trp(1-CH2COOH)][NMeNle][NMeNle]SCG-NH2; thioether N-14) | 1 to 9.9
CCCC[C@H]1C(=O)N2CCC[C@@H]2C(=O)N[C@@H](CC(=O)O)C(=O)N[C@@H](C(C)C)C(=O)N(C)[C@@H](CCOC)C(=O)N[C@@H](CCC(N)=O)C(=O)N2CCCC[C@@H]2C(=O)N[C@@H](Cc2c[nH]c3ccccc23)C(=O)N[C@@H](Cc2ccc(O)cc2)C(=O)N[C@@H](CC(C)C)C(=O)N[C@H](C(=O)NCC(N)=O)CSCC(=O)N[C@@H](Cc2ccc(F)cc2)C(=O)N(C)[C@@H](Cc2ccccc2)C(=O)N1C [Example 9224] ({CH2CO}-[Phe(4-F)][NMeF][NMeNle][dP]DV[NMehSer](Me)Q[dPip]WYLCG-NH2; thioether N-13) | 100 to 990

Same assay, conditions: PD-L1-His 10 nM, PD-1-Ig 20 nM; read-out: HTRF Human PD-L1/PD-1 Binding Assay IC50

SMILES | IC50 [nM]
CCCC[C@H]1C(=O)N(C)[C@@H](C)C(=O)N[C@@H](CCCNC(=N)N)C(=O)NC(C(=O)NCC(N)=O)CSCC(=O)N[C@@H](Cc2ccc(O)cc2)C(=O)N(C)[C@@H](C)C(=O)N[C@@H](CC(N)=O)C(=O)N2CCC[C@H]2C(=O)N[C@@H](Cc2cnc[nH]2)C(=O)N[C@H](CO)C(=O)N2CCC[C@H]2C(=O)N[C@@H](Cc2c[nH]c3ccccc23)C(=O)N[C@@H](CO)C(=O)N[C@@H](Cc2csc3ccccc23)C(=O)N1C (stereo partly drawn) [Example 9118] ({CH2CO}-Y[NMeA]NPH[dS]PWS[Bta][NMeNle][NMeA]R[ξC]G-NH2; thioether N-14) | 27
